This passage reports IC50 results from patent US20160159814A1, “GLYCINE TRANSPORTER INHIBITOR” (TAISHO PHARMACEUTICAL CO., LTD., priority 2013, published 2016).

The first test has as its target T1, human type 1 glycine transporter (GlyT1) (Homo sapiens, UniProt P48067).
T1 construct: T98G cells (glioma cells) expressing human type 1 glycine transporter (GlyT1) were used; endogenous in cells; host or cells: T98G cells (human glioma cells)
T1 sequence (P48067 1-706): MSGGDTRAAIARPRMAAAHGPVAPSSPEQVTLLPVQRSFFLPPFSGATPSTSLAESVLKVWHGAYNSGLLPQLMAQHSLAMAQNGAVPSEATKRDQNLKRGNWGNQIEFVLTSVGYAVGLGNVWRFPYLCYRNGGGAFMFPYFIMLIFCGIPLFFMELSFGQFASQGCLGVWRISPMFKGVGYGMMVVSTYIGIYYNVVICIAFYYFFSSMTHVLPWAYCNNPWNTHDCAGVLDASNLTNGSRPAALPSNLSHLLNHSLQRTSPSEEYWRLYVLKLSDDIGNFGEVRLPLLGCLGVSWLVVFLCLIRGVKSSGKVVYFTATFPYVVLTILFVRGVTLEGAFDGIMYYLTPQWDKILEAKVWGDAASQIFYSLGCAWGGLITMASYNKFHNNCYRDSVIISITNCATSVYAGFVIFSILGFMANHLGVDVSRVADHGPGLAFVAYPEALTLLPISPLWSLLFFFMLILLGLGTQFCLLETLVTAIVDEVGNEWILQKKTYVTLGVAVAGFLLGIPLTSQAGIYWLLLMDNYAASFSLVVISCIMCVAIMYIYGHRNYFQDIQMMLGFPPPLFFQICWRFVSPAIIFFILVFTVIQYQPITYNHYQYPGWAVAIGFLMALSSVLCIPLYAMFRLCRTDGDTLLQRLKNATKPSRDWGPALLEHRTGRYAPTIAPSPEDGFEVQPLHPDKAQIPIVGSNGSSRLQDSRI
The test can be described thus: Glycine uptake inhibition experiment ([3H] glycine uptake in T98G cells expressing GlyT1). In kind it is cell-based.
Conditions: not given
Summed up:
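T98G glioma cells expressing human GlyT1 were pretreated 10 min with compound in HEPES buffer pH 7.4 (0.2% BSA), then incubated with compound plus 250 nM final [3H]glycine for 15 min at room temperature. Intracellular radioactivity was counted after NaOH lysis; 10 μM ALX5407 defined non-specific uptake. IC50 came from 10^−9–10^−5 M curves.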
Take `C[C@H](O)c1cccc2c1C(F)(F)C(=O)N2Cc1ccncc1Cl` [Compound 185, 1-[(3-chloropyridin-4-yl)methyl]-3,3-difluoro-4-[(1S)-1-hydroxyethyl]-1,3-dihydro-2H-indol-2-one]: the IC50 was 280 nM. As to `COc1ccncc1CN1C(=O)C(F)(F)c2c([C@H](C)O)cccc21` [Compound 209, 3,3-difluoro-4-[(1S)-1-hydroxyethyl]-1-[(4-methoxypyridin-3-yl)methyl]-1,3-dihydro-2H-indol-2-one], the IC50 was found to be 2800 nM. The same measure, in the same setting: the same measure for `C[C@H](O)c1cccc2c1C(F)(F)C(=O)N2Cc1ccc(Cl)c(C#N)n1` [Compound 202, 3-chloro-6-({3,3-difluoro-4-[(1S)-1-hydroxyethyl]-2-oxo-2,3-dihydro-1H-indol-1-yl)methyl)pyridine-2-carbonitrile]: 6.9 nM. Still for that read-out and setting: the same measure for `COc1ccc(CN2C(=O)C(F)(F)c3c([C@H](C)O)cccc32)cn1` [Compound 203, 3,3-difluoro-4-[(1S)-1-hydroxyethyl]-1-[(6-methoxypyridin-3-yl)methyl]-1,3-dihydro-2H-indol-2-one]: 31 nM; for `COc1cc(CN2C(=O)C(F)(F)c3c([C@H](C)O)cccc32)ncc1Cl` [Compound 232, 1-[(5-chloro-4-methoxypyridin-2-yl)methyl)-3,3-difluoro-4-[(1S)-1-hydroxyethyl]-1,3-dihydro-2H-indol-2-one]: 32 nM; for `O=C1N(Cc2ccc(F)cn2)c2cccc(C(O)C(F)F)c2C1(F)F` (single isomer, unassigned) [Compound 168, 4-(2,2-difluoro-1-hydroxyethyl)-3,3-difluoro-1-[(5-fluoropyridin-2-yl)methyl]-1,3-dihydro-2H-indol-2-one]: 280 nM. The same measure, in the same setting: the same measure for `COc1cc(Cl)ncc1CN1C(=O)C(F)(F)c2c([C@H](C)O)cccc21` [Compound 231, 1-[(6-chloro-4-methoxypyridin-3-yl)methyl]-3,3-difluoro-4-[(1S)-1-hydroxyethyl]-1,3-dihydro-2H-indol-2-one]: 140 nM.

The molecule `C[C@H](O)c1ccc(F)c2c1C(F)(F)C(=O)N2Cc1ccnc(C#N)c1` [Compound 277, 4-({3,3,7-trifluoro-4-[(1S)-1-hydroxyethyl]-2-oxo-2,3-dihydro-1H-indol-1-yl}methyl)pyridine-2-carbonitrile] had an IC50 of 14 nM.

Turning to `C[C@H](O)c1cccc2c1C(F)(F)C(=O)N2Cc1ccnc(C#N)c1Cl` [Compound 192], the IC50 was determined as 67 nM.

`C[C@H](O)c1cccc2c1C(F)(F)C(=O)N2Cc1ccc(Cl)nc1C#N` [Compound 248, 6-chloro-3-({3,3-difluoro-4-[(1S)-1-hydroxyethyl]-2-oxo-2,3-dihydro-1H-indol-1-yl}methyl)pyridine-2-carbonitrile] returned an IC50 of 1200 nM.

The test is the same for the next values; noted with them: glycine uptake inhibition.
Regarding `C[C@H](O)c1cccc2c1C(F)(F)C(=O)N2Cc1ccnc(-n2cncn2)c1` [Compound 69, 3,3-difluoro-4-[(1S)-1-hydroxyethyl]-1-{[2-(1H-1,2,4-triazol-1-yl)pyridin-4-yl]methyl}-1,3-dihydro-2H-indol-2-one], half-maximal inhibition (IC50) required 45 nM. Molecule `C[C@H](O)c1cccc2c1C(F)(F)C(=O)N2Cc1nc2ccccc2[nH]c1=O` [Compound 98, 3-({3,3-difluoro-4-[(1S)-1-hydroxyethyl]-2-oxo-2,3-dihydro-1H-indol-1-yl}methyl) quinoxalin-2(1H)-one] registered an IC50 of 34 nM. On the same count and under the same terms, in the case of `C[C@H](O)c1cccc2c1C(F)(F)C(=O)N2Cc1ccc(C(F)F)nc1` [Compound 130, 1-{[6-(difluoromethyl)pyridin-3-yl]methyl}-3,3-difluoro-4-[(1S)-1-hydroxyethyl]-1,3-dihydro-2H-indol-2-one] it was 400 nM. On the same count and under the same terms, in the case of `O=C1N(Cc2cncc(-n3nccn3)c2)c2cccc([C@@H](O)C(F)(F)F)c2C1(F)F` [Compound 134, 3,3-difluoro-1-{[5-(2H-1,2,3-triazol-2-yl)pyridin-3-yl]methyl}-4-[(1R)-2,2,2-trifluoro-1-hydroxyethyl]-1,3-dihydro-2H-indol-2-one] it was 66 nM; in that of `C[C@H](O)c1cccc2c1C(F)(F)C(=O)N2Cc1ccc2ncccc2n1` [Compound 78, 3,3-difluoro-4-[(1S)-1-hydroxyethyl]-1-(1,5-naphthyridin-2-ylmethyl)-1,3-dihydro-2H-indol-2-one], 320 nM. Turning to `CC(O)c1cccc2c1C(F)(F)C(=O)N2Cc1cccc(Cl)n1` (stereo not drawn) [Compound 1, 1-[(6-chloropyridin-2-yl)methyl]-3,8-difluoro-4-(1-hydroxyethyl)-1,3-dihydro-2H-indol-2-one], the IC50 was found to be 15 nM. For `O=C1N(Cc2cc(Cl)ccn2)c2cccc([C@@H](O)C(F)(F)F)c2C1(F)F` [Compound 145, 1-[(4-chloropyndin-2-yl)methyl]-3,3-difluoro-4-[(1R)-2,2,2-trifluoro-1-hydroxyethyl]-1,3-dihydro-2H-indol-2-one], the IC50 was determined as 43 nM.

The molecule `C[C@H](O)c1cccc2c1C(F)(F)C(=O)N2Cc1cccc(C#N)c1` [Compound 57, 3-({3,3-difluoro-4-[(1S)-1-hydroxyethyl]-2-oxo-2,3-dihydro-1H-indol-1-yl}methyl) benzonitrile] registered an IC50 of 15 nM. With `C[C@H](O)c1cccc2c1C(F)(F)C(=O)N2Cc1ccsc1` [Compound 80, 3,3-difluoro-4-[(1S)-1-hydroxyethyl]-1-(thiophen-3-ylmethyl)-1,3-dihydro-2H-indol-2-one], the IC50 was determined as 28 nM. `Cc1nc(CN2C(=O)C(F)(F)c3c([C@H](C)O)cccc32)oc1C` [Compound 91, 1-[(4,5-dimethyl-1,3-oxazol-2-yl)methyl]-3,3-difluoro-4-[(1S)-1-hydroxyethyl]-1,3-dihydro-2H-indol-2-one] registered an IC50 of 130 nM. The same measure, in the same setting: the same measure for `C[C@H](O)c1cccc2c1C(F)(F)C(=O)N2Cc1cc2ccccc2c(=O)n1C` [Compound 100, 3-({3,3-difluoro-4-[(1S)-1-hydroxyethyl]-2-oxo-2,3-dihydro-1H-indol-1-yl}methyl)-2-methylisoquinolin-1(2H)-one]: 29 nM; for `O=C1N(Cc2cc3ccccc3c(=O)[nH]2)c2cccc([C@@H](O)C(F)(F)F)c2C1(F)F` [Compound 138, 3-({3,3-difluoro-2-oxo-4-[(1R)-2,2,2-trifluoro-1-hydroxyethyl]-2,3-dihydro-1H-indol-1-yl}methyl) isoquinolin-1(2H)-one]: 58 nM; for `C[C@H](O)c1cccc2c1C(F)(F)C(=O)N2Cc1ccc(C(F)(F)F)o1` [Compound 94, 3,3-difluoro-4-[(1S)-1-hydroxyethyl]-1-{[5-(trifluoromethyl)furan-2-yl]methyl}-1,3-dihydro-2H-indol-2-one]: 6 nM. Same read-out and setting: the same measure for `O=C1N(Cc2cccc(Cl)n2)c2cccc(CO)c2C1(F)F` [Compound 16, 1-[(6-chloropyridin-2-yl)methyl]-3,3-difluoro-4-(hydroxymethyl)-1,3-dihydro-2H-indol-2-one]: 140 nM; for `C[C@@H](O)c1cccc2c1C(F)(F)C(=O)N2Cc1ccnc(F)c1` [Compound 43, 3,3-difluoro-1-[(2-fluoropyridin-4-yl)methyl]4-[(1R)-1-hydroxyethyl]-1,3-dihydro-2H-indol-2-one]: 4400 nM; for `C[C@H](O)c1cccc2c1C(F)(F)C(=O)N2Cc1ccc(C#N)cn1` [Compound 113, 6-({3,3-difluoro-4-[(1S)-1-hydroxyethyl]-2-oxo-2,3-dihydro-1H-indol-1-yl}methyl)pyridine-3-carbonitrile]: 940 nM. As to `C[C@H](O)c1cccc2c1C(F)(F)C(=O)N2Cc1ccnc(-n2nccn2)c1` [Compound 45, 3,3-difluoro-4-[(1S)-1-hydroxyethyl]-1-{[2-(2H-1,2,3-triazol-2-yl)pyridin-4-yl]methyl}-1,3-dihydro-2H-indol-2-one], half-maximal inhibition (IC50) required 110 nM.

Staying with this test, now noted: table section whose head prints (μm).
Take `COc1cc(CN2C(=O)C(F)(F)c3c([C@H](C)O)cccc32)ncc1F` [Compound 261, 3,3-difluoro-1-[(5-fluoro-4-methoxypyridin-2-yl)methyl)-[(1S)-1-hydroxyethyl]-1,3-dihydro-2H-indol-2-one]: the IC50 came out at 250 nM. On the same count and under the same terms, the same measure for `N#Cc1cccnc1CN1C(=O)C(F)(F)c2c(C(O)C(F)F)cccc21` (single isomer, unassigned) [Compound 259, 2-{[4-(2,2-difluoro-1-hydroxyethyl)-3,3-difluoro-2-oxo-2,3-dihydro-1H-indol-1-yl]methyl}pyridine-3-carbonitrile]: 1900 nM; for `COc1nc(CN2C(=O)C(F)(F)c3c(C(O)C(F)F)cccc32)ccc1F` (single isomer, unassigned) [Compound 265, 4-(2,2-difluoro-1-hydroxyethyl)-3,3-difluoro-1-[(5-fluoro-6-methoxypyridin-2-yl)methyl]-1,3-dihydro-2H-indol-2-one]: 930 nM.

The term IC50 denotes the concentration needed to halve the response being measured.
